In the AptaBench aptamer set (doi:10.1093/nar/gkaf219):

Legend:
Conditions in all cases: 10 mM Tris-HCl, pH 7.4
[1] = tested on: DNA aptamer or structured DNA CTTACGACGGGGTGGGGGCGGCTTCCCATGGGAGGGGTGTCGTAAG
[2] = tested on: DNA aptamer or structured DNA CTTACGACACTGGCAGGAGGGTCGGGTGTGGGAACGTGGTCGTAAG
[3] = tested on: DNA aptamer or structured DNA GGGACGACACGTGTGGCTGGTAGGGTAGGTCTTGTCGCGTCGTCCC
[4] = tested on: DNA aptamer or structured DNA TTCAAATCTAGCGCAGGTAGGGGTGTAGGTGTGGGGGTAAGTCTAGATTTGAA
[5] = tested on: DNA aptamer or structured DNA CTTACGACATGGGATGTGTAGTTAGTGGTCGGATCCGAGTCGTAAG
[6] = tested on: DNA aptamer or structured DNA GGGACGACAGAGGTTAGGTGTAGGTTTTTGGGTCCTGTCGTCCC
[7] = tested on: DNA aptamer or structured DNA CTTACGACAAGGGATGTGTAGTTAGTGGTCGGATCCGAGTCGTAAG
[8] = tested on: DNA aptamer or structured DNA CTTACGACATGGGATGTGTAGTTAGTGGTCGGATCCGGGTCGTAAG
[9] = tested on: DNA aptamer or structured DNA CTTACGACGGGTAGGCTGAGGGTCTGGAGTGGTTGGAAGTCGTAAG
[10] = tested on: DNA aptamer or structured DNA CTTACGACAGGGGTACCCGCGTATAACGTGGCGTTCGTGTCGTAAG
[11] = tested on: DNA aptamer or structured DNA GGGACGACGGTTGGCATTGGGTCGGGTGTGGGGGCGGCGTCGTCCC
[12] = tested on: DNA aptamer or structured DNA CTTACGACTAGGTGTGGGTCGGCTGCTTTCGCAGGGTAGTCGTAAG
[13] = tested on: DNA aptamer or structured DNA GGGACGACTAGGGCTTAGGGTTTAGGTGTGGGGTGTAAGTCGTCCC
[14] = tested on: DNA aptamer or structured DNA CTTACGACCTGTTCTGAGGGTCAACCTTTGGTGTAGTGGTCGTAAG
[15] = tested on: DNA aptamer or structured DNA GGGACGACGGGGCTGTGGGAGGGGGTTCATGGGTCCCGGTCGTCCC
[16] = tested on: DNA aptamer or structured DNA CTTACGACACCGGGATCCAGATGGGTAGTTTGATGTGTGTCGTAAG
[17] = tested on: DNA aptamer or structured DNA GGGACGACGCAAATGGAAGCATTGGTTGTGTTCACACTGCTGGGTCGTCCC
[18] = tested on: DNA aptamer or structured DNA CTTACGACTAGGTGTGGGTCGGCCATTAGTGGAGGGTAGTCGTAAG
[19] = tested on: DNA aptamer or structured DNA TTCAAATCTGGCGTTCGGGTTTGTCTTATTGATGGATCAAGTCTAGATTTGAA
[20] = tested on: DNA aptamer or structured DNA CTTACGACAAAGGCTCGGGCTCCCATGATGGATTCGTTGTCGTAAG
[21] = tested on: DNA aptamer or structured DNA CTTACGACACAGGGTGTGTTGTGCTCAGTGGTGTATGTGTCGTAAG
[22] = tested on: DNA aptamer or structured DNA GGGACGACCTAGGGCTTGGGTTTAGGTGTGGGGTGTTGGGTCGTCCC
[23] = tested on: DNA aptamer or structured DNA CTTACGACCGGTGTGCTCGGGGAAGGGGGCCCTAGGTGGTCGTAAG
[24] = tested on: DNA aptamer or structured DNA CTTACGACCTGTTCTGAGGGTCAACGGTGGTGTAGTCGGTCGTAAG
[25] = tested on: DNA aptamer or structured DNA GGGACGACGGGAAATGGAAGCATTGGTTGAGTTACTCTGCTCCTGTCGTCCC
[26] = tested on: DNA aptamer or structured DNA CTTACGACAAGGGATGTCTGTTAGTGTGTCGGTGCATTGTCGTAAG
[27] = tested on: DNA aptamer or structured DNA CTTACGACAAGGGATGTTTGTTAGTGTGTCGGATCTATGTCGTAAG
[28] = tested on: DNA aptamer or structured DNA GGGACGACGGAGGTGTAGGGTTTAGGTAGTGGTTTGAAGTCGTCCC
[29] = tested on: DNA aptamer or structured DNA TTCAAATCTGAGCAGCCTAGTTACTGACGGGTTTATAGTACTCACATTGAGTCTAGATTTGAA
[30] = tested on: DNA aptamer or structured DNA GGGACGACGGCAGGGTGTTGGTGGGGTAGGTCAATGTAGTCGTCCC
[31] = tested on: DNA aptamer or structured DNA GGGACGACGGCAATTGCCGGTGCAGGATCTGAATTATCGTCGTCCC
[32] = tested on: DNA aptamer or structured DNA CTTACGACACAGGGCGTGGAGGAGCTGGGCTATTAGGGGTCGTAAG
[33] = tested on: DNA aptamer or structured DNA CTTACGACGGGTGCCGTTGGTTCTAGGGGTAGGATGGCGTCGTAAG
[34] = tested on: DNA aptamer or structured DNA CTTACGACTACGGTTGGTTCAGGGGGTAGGTGCTTTGGGTCGTAAG
[35] = tested on: DNA aptamer or structured DNA GGGACGACGGCACGAGGTTATTCGTTGGTTGCACTGCGCTGGGAGGTAGTCGTCCC
Wherever binding call is given: call rule not given here.

CN(C)CCOC(c1ccccc1)c1ccccc1
binding call [1]: no binding | binding call [2]: no binding | binding call [3]: binds | binding call [4]: no binding | binding call [5]: no binding | binding call [6]: no binding | binding call [7]: no binding | binding call [8]: no binding | binding call [9]: no binding | binding call [10]: no binding | binding call [11]: binds | binding call [12]: no binding | binding call [13]: binds | binding call [14]: no binding | binding call [15]: no binding | binding call [16]: no binding | binding call [17]: binds | binding call [18]: no binding | binding call [19]: no binding | binding call [20]: no binding | binding call [21]: no binding | binding call [22]: no binding | binding call [23]: no binding | binding call [24]: no binding | binding call [25]: no binding | binding call [26]: no binding | binding call [27]: no binding | binding call [28]: binds | binding call [29]: no binding | binding call [30]: binds

NCCc1c[nH]c2ccc(O)cc12
binding call [31]: binds | binding call [3]: no binding | binding call [4]: no binding | binding call [5]: no binding | binding call [32]: no binding | binding call [6]: no binding | binding call [33]: binds | binding call [7]: no binding | binding call [8]: no binding | binding call [9]: no binding | binding call [12]: no binding | binding call [13]: no binding | binding call [14]: no binding | binding call [18]: no binding | binding call [19]: no binding | binding call [34]: binds | binding call [20]: no binding | binding call [22]: no binding | binding call [35]: no binding | binding call [24]: no binding | binding call [26]: no binding | binding call [27]: binds | binding call [28]: no binding | binding call [29]: no binding

COc1ccc2c3c1O[C@H]1C(=O)CC[C@@]4(O)[C@@H](C2)N(C)CC[C@]314
binding call [3]: binds | binding call [4]: no binding | binding call [5]: no binding | binding call [6]: no binding | binding call [7]: no binding | binding call [8]: no binding | binding call [9]: no binding | binding call [11]: no binding | binding call [12]: no binding | binding call [13]: no binding | binding call [14]: no binding | binding call [17]: no binding | binding call [18]: no binding | binding call [19]: no binding | binding call [20]: no binding | binding call [22]: no binding | binding call [24]: no binding | binding call [25]: binds | binding call [27]: no binding | binding call [28]: no binding | binding call [30]: no binding

CNC(C)Cc1ccc2c(c1)OCO2 (stereo not given)
binding call [31]: binds | binding call [3]: binds | binding call [4]: no binding | binding call [9]: no binding | binding call [13]: no binding | binding call [14]: no binding | binding call [19]: no binding | binding call [34]: no binding | binding call [20]: no binding | binding call [22]: no binding | binding call [35]: binds | binding call [24]: no binding | binding call [26]: no binding | binding call [27]: binds | binding call [28]: binds | binding call [30]: no binding

CN[C@@H](C)Cc1ccccc1
binding call [1]: no binding | binding call [2]: no binding | Kd [31]: 10100 nM | binding call [3]: no binding | binding call [4]: no binding | binding call [32]: no binding | binding call [6]: no binding | binding call [33]: no binding | binding call [7]: no binding | binding call [8]: no binding | binding call [10]: no binding | binding call [11]: no binding | binding call [12]: no binding | binding call [13]: no binding | binding call [15]: no binding | binding call [16]: no binding | binding call [17]: no binding | binding call [19]: no binding | binding call [34]: no binding | binding call [20]: no binding | binding call [21]: binds | binding call [22]: no binding | Kd [35]: 6000 nM | binding call [23]: no binding | binding call [24]: no binding | binding call [25]: no binding | binding call [26]: no binding | binding call [27]: no binding | binding call [28]: no binding | Kd [29]: 1880 nM | binding call [30]: no binding

COC(=O)[C@@H]1C2CCC(C[C@@H]1OC(=O)c1ccccc1)N2C (stereo not given in full)
binding call [1]: no binding | binding call [2]: no binding | binding call [31]: no binding | binding call [3]: binds | binding call [4]: no binding | Kd [32]: 1190 nM | binding call [6]: no binding | Kd [33]: 1350 nM | Kd [7]: 2650 nM | Kd [8]: 127 nM | Kd [9]: 450 nM | binding call [10]: no binding | Kd [12]: 350 nM | binding call [13]: no binding | Kd [14]: 216 nM | binding call [15]: no binding | binding call [16]: no binding | binding call [17]: binds | Kd [18]: 735 nM | binding call [19]: no binding | Kd [34]: 198 nM | Kd [20]: 285 nM | binding call [21]: no binding | binding call [22]: binds | binding call [35]: no binding | binding call [23]: no binding | Kd [24]: 53 nM | binding call [25]: no binding | Kd [26]: 330 nM | Kd [27]: 115 nM | binding call [28]: binds | binding call [29]: no binding | binding call [30]: no binding
